Reference: patent publication US10703764B2, “Benzopiperazine compositions as BET bromodomain inhibitors” (FORMA Therapeutics, Inc., priority 2013, dated 2020)

What was measured:
BRD4 BD1 = molecular target: T1, BRD4 BD1 (Homo sapiens, UniProt O60885); test: AlphaScreen binding assay, BRD4 Bromodomain 1
T1 construct: made in house
Summary of the method: (§1)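 Compound dilution series were mixed with His-tagged BRD4 bromodomain and biotinylated tetra-acetylated H4 (1-21) peptide at pH 7.3 (BD1 and peptide at 50 nM, BD2 and peptide at 100 nM). Donor and acceptor beads were then added, and plates were equilibrated at least 1 h before reading. IC50 values were fitted with a four-parameter logistic model.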

BRD4 BD2 = molecular target: T2, BRD4 BD2 (Homo sapiens, UniProt O60885); test: AlphaScreen binding assay, BRD4 Bromodomain 2
T2 construct: made in house
Summary of the method: as §1

Row | Compound | IC50 (BRD4 BD1) [nM] | IC50 (BRD4 BD2) [nM]
1 | CC(=O)N1c2ccccc2N(C(=O)c2csc(C(F)(F)F)n2)C[C@@H]1C [Example I-761] | > 10000 | > 500
2 | CC(=O)N1c2ccccc2N(Cc2ccc(OCCN(C)C)cc2)C[C@@H]1C [Example I-907] | > 10000 | > 500
3 | CC(C)OC(=O)N1C[C@H](C)N(C(C)C2CC2)c2ccc(-c3cnn(C4CNC4)c3)cc21 (stereo partly drawn) [Example I-357] | 1000 to 10000 | 50 to 500
4 | CC(C)OC(=O)N1C[C@H](C)N(C(=O)C2CC2)c2ccc(-c3cnn(CC(=O)O)c3)cc21 [Example I-340] | 1000 to 10000 | > 500
5 | CC(C)C(=O)N1c2ccc(-c3ccc(S(C)(=O)=O)cc3)cc2N(C(=O)c2ccco2)C[C@@H]1C [Example I-370] | > 10000 | > 500
6 | COCC(=O)N1c2ccc(-c3ccc(S(C)(=O)=O)cc3)cc2N(C(=O)c2ccco2)C[C@@H]1C [Example I-368] | > 10000 | > 500
7 | CC(=O)N1c2ccccc2N(C(=O)c2ccccc2Oc2ccccc2)C[C@@H]1C [Example I-744] | > 10000 | > 500
8 | CC(=O)N1c2ccccc2N(Cc2ccccc2)C[C@@H]1C [Example I-909] | > 10000 | 50 to 500
9 | CC(=O)N1c2ccccc2N(Cc2ccc(C(C)C)cc2)C[C@@H]1C [Example I-892] | > 10000 | > 500
10 | CC(=O)N1c2ccc(-c3cnn(-c4nc5ccccc5o4)c3)cc2N(c2nc3ccccc3o2)C[C@@H]1C [Example I-56, (S)-1-(4-(benzo[d]oxazol-2-yl)-6-(1-(benzo[d]oxazol-2-yl)-1H-pyrazol-4-yl)-2-methyl-3,4-dihydroquinoxalin-1(2H)-yl)ethanone] | > 10000 | > 500
11 | COc1cccc2[nH]c(C(=O)N3CC(C)N(C(C)=O)c4ccc(-c5ccc(S(C)(=O)=O)cc5)cc43)cc12 (stereo not drawn) [Example I-883] | > 10000 | > 500
12 | CC(=O)N1c2ccc(-c3cnn(CCO)c3)cc2N(C(=O)Oc2ccc(F)cc2F)C[C@@H]1C [Example I-1009] | 1000 to 10000 | 50 to 500
13 | COC(=O)N1c2ccc(-c3cnn(C[C@@H]4CCNC4)c3)cc2N(C(=O)OC(C)C)C[C@@H]1C [Example I-691] | 1000 to 10000 | 50 to 500
14 | CC(=O)N1c2ccc(-c3cnn(C4CC4)c3)nc2N(C(=O)OC(C)C)C[C@@H]1C [Example I-255] | 1000 to 10000 | 50 to 500
15 | CC(=O)N1c2ccccc2N(Cc2ccccn2)C[C@@H]1C [Example I-913] | > 10000 | > 500
16 | CC(=O)N1c2ccccc2N(C(=O)Cc2ccccc2)C[C@@H]1C [Example I-695] | > 10000 | > 500
17 | CC(=O)N1c2ccc(-c3cnsc3)cc2N(C(=O)c2ccco2)C[C@@H]1C [Example I-432] | 100 to 1000 | 50 to 500
18 | CC(=O)N1c2ccccc2N(C(=O)c2cccc(Cl)c2)C[C@@H]1C [Example I-718] | > 10000 | > 500
19 | CC(=O)N1c2ccc(-c3cncn3C)cc2N(C(=O)c2ccco2)C[C@@H]1C [Example I-389] | > 10000 | 50 to 500
20 | CC(=O)N1c2ccc(N(C)Cc3ccccc3)cc2N(C(=O)c2ccco2)C[C@@H]1C [Example I-990] | 1000 to 10000 | 50 to 500
21 | C[C@H]1CN(C(=O)C2CC2)c2cc(-c3cn(C)nn3)ccc2N1C(=O)C1CC1 [Example I-454] | 1000 to 10000 | 50 to 500

Row | Compound | IC50 (BRD4 BD1) [nM] | IC50 (BRD4 BD2) [nM]
22 | COc1ccc(OC(=O)N2C[C@H](C)N(C(C)=O)c3ccc(-c4cnn(C5CC5)c4)cc32)c(Cl)c1 [Example I-505] | 1000 to 10000 | 50 to 500
23 | CC(=O)N1c2ccc(-c3ccc(S(C)(=O)=O)cc3)cc2N(C(=O)NCc2ccccc2Cl)C[C@@H]1C [Example I-977] | > 10000 | > 500
24 | CC(=O)N1c2ccc(-c3cnn(C4CC4)c3)cc2N(C(=O)Oc2cnc3ccccc3c2)C[C@@H]1C [Example I-1203] | 1000 to 10000 | 50 to 500
25 | CC(=O)N1c2ccc(-c3cnn(CC4CCS(=O)(=O)CC4)c3)cc2N(C(=O)C2CC2)C[C@@H]1C [Example I-684] | 100 to 1000 | 50 to 500
26 | COC(=O)N1c2ccc(-c3cnn(CC#N)c3)cc2N(C(=O)OC(C)C)C[C@@H]1C [Example I-639] | 1000 to 10000 | > 500
27 | CC(=O)N1c2ccccc2N(Cc2cccc3c2OCO3)C[C@@H]1C [Example I-921] | > 10000 | 50 to 500
28 | CC(=O)N1c2ccc(-c3cnn(C4COC4)c3)cc2N(C(=O)OCC2CC2(C)C)C[C@@H]1C (stereo partly drawn) [Example I-73, (2,2-dimethylcyclopropyl)methyl (3S)-4-acetyl-3-methyl-7-(1-(oxetan-3-yl)-1H-pyrazol-4-yl)-3,4-dihydroquinoxaline-1(2H)-carboxylate] | 1000 to 10000 | 50 to 500
29 | C[C@H]1CN(C(=O)c2ccco2)c2cc(-c3ccc(S(C)(=O)=O)cc3)ccc2N1C(=O)CO [Example I-367] | > 10000 | > 500
30 | COc1ccc(OCC(=O)N2C[C@H](C)N(C(C)=O)c3ccccc32)cc1 [Example I-733] | > 10000 | > 500
31 | COC(=O)N1c2ccc(-c3cnn(CC(=O)O)c3)cc2N(C(=O)OC(C)C)C[C@@H]1C [Example I-341] | 1000 to 10000 | 50 to 500
32 | CC(=O)N1c2ccc(-c3ccc(S(C)(=O)=O)cc3)cc2N(C(=O)c2ccc(CN)o2)C[C@@H]1C [Example I-890] | 1000 to 10000 | 50 to 500
33 | CC(=O)N1c2ccc(-c3cnn(C4CC4)c3)nc2N(C(=O)NC(C)C)C[C@@H]1C [Example I-193, (S)-1-acetyl-6-(1-cyclopropyl-1H-pyrazol-4-yl)-N-isopropyl-2-methyl-2,3-dihydropyrido[2,3-b]pyrazine-4(1H)-carboxamide] | > 10000 | > 500
34 | CC(=O)N1c2ccc(-c3ccc(S(C)(=O)=O)cc3)cc2N(C(=O)c2ccc(-c3ccccc3)o2)C[C@@H]1C [Example I-886] | > 10000 | 50 to 500
35 | CC(C)OC(=O)N1C[C@H](C)N(C(=O)C2CC2)c2ccc(-c3ccc(C(=O)NCc4ncco4)cc3)cc21 [Example I-585] | 1000 to 10000 | > 500
36 | CC(=O)N1c2ccc(-c3ccc(S(C)(=O)=O)cc3)cc2N(C=O)C[C@@H]1C [Example I-102, (S)-4-acetyl-3-methyl-7-(4-(methylsulfonyl)phenyl)-3,4-dihydroquinoxaline-1(2H)-carbaldehyde] | > 10000 | > 500
37 | C[C@H]1CN(C(=O)C2CC2)c2cc(-c3cnc(N)cn3)ccc2N1C(=O)C1CC1 [Example I-442] | 1000 to 10000 | 50 to 500
38 | CC(=O)N1c2ccccc2N(Cc2cccc(C)c2)C[C@@H]1C [Example I-893] | > 10000 | > 500
39 | CC(=O)N1c2ccccc2N(C(=O)c2cc3n(n2)CCC3)C[C@@H]1C [Example I-774] | > 10000 | > 500
40 | CC(=O)N1c2ccc(-c3ccc(S(C)(=O)=O)cc3)cc2N(C(=O)c2csnn2)C[C@@H]1C [Example I-783] | 1000 to 10000 | > 500
41 | COC(=O)N1c2ccc(-c3cnn(C4CNC4)c3)cc2N(C(=O)OC(C)C)C[C@@H]1C [Example I-358] | 1000 to 10000 | 50 to 500
42 | CC(C)OC(=O)N1C[C@H](C)N(C(=O)C2CC2)c2ccc(-c3cnn(CCN(C)C)c3)cc21 [Example I-646] | 1000 to 10000 | > 500
